Measured values from patent US9763444B2, “Compositions and methods for repelling blood-sucking and biting insects, ticks and mites” (The United States of America, as represented by the …, priority 2013, dated 2017).

Tests used:
[1] = test system: Ae. aegypti; assay: Minimum Effective Dosage (MED) test on treated cloth, mosquito repellency; type: in vivo, Aedes aegypti; details: for Ae. aegypti Minimum Effective Dosage, F1 / Ae. aegypti Minimum Effective Dosage, M1 / Ae. aegypti Minimum Effective Dosage, M2 / Ae. aegypti Minimum Effective Dosage, Average: Table 2; for Ae. aegypti Minimum Effective Dosage, F1: human subject F1; for Ae. aegypti Minimum Effective Dosage, F1 / Ae. aegypti Minimum Effective Dosage, M1 / Ae. aegypti Minimum Effective Dosage, M2: highest concentration 1.500 mg/cm^2; for Ae. aegypti Minimum Effective Dosage, M1: human subject M1; for Ae. aegypti Minimum Effective Dosage, M2: human subject M2; for Ae. aegypti Minimum Effective Dosage, Average: mean of 3 volunteers
Experimental: Bioassay for mosquito repellent activity: Repellency screening test for experimental chemicals were carried out to identify candidates that might be useful repellents. The repellent efficacy was compared to that of the standard repellent, DEET. Experimental compounds were assessed in one of two ways: (1) a range of concentration was evaluated to determine the minimum effective dosage (MED) which was the concentration threshold of where the repellent began to fail and allowed bites, or (2) a predetermined concentration of each repellent was applied to cloth and the activity was evaluated over several days (or in some cases months) (Katritzky, A. R., et al., Proc. Nat. Acad. Sci. (US), 105, 7359-7364 (2008); Katritzky, A. R., et al., Journal of Med. Entomol., 47: 924-938 (2010)). When conducting assays for repellency, a failure point was also predetermined for those measurements. Since experiments described herein used about 500 female mosquitoes per test, the failure point was set at 1% (equal to 5 bites) received during a test interval. From 3 to 5 volunteers participated in the screening of each set of chemicals.
Minimum Effective Dosage (MED) Test: The MED bioassays on treated cloth were a method of screening to determine the minimum amount of a repellent needed to prevent bites. Experimental compounds were prepared in solution by combining 0.15 g of experimental chemical with 2 mL of acetone in a 7.1 mL screwtop glass vial. This solution was then serially diluted to obtain nine concentrations when applied on to the cloth patch: 1.5, 0.75, 0.375, 0.187, 0.094, 0.047, 0.023, 0.011, and 0.006 mg/cm^2. The standard N,N-diethyl-3-methylbenzamide (DEET) was also tested at the same concentration levels to serve as a control and a comparison for relative repellency. A 50 cm^2 (5 cm×10 cm) patch of muslin cloth was rolled lengthwise and placed into each of the glass vials and scaled with a screwtop so it soaked up the solution. Just prior to the experiment, the pieces of treated cloth were removed from the vials, affixed to card stock tabs (5 cm×3 cm) with staples, and hung with masking tape on a rack to dry and allow acetone to evaporate. Volunteers wore a latex glove over their hands, a nylon stocking over their arm, and then wrapped a plastic Velcro-sealed sleeve over their entire forearm with a 32 cm^2 (4 cm×8 cm) window cut-out to allow mosquitoes to bite through. The nylon stocking acted as a barrier between the dried cloth and the skin, an additional precaution with experimental compounds. Dried cloth patches were stretched across the window in the plastic sleeve and held in place with masking tape. Volunteers placed their sleeve-covered arms into a screened cage for a one minute period with approximately 500 female Ae. aegypti mosquitoes that had been preselected for host-seeking behavior using a draw box (Posey, K. H., and C. E. Schreck, Mosquito News, 41: 566-568 (1981)). […] The MED recorded was the lowest passing concentration level tested for the experimental compound. […] All human volunteers in the study provided informed consent to participate of a protocol approved by the University of Florida Human Use Institutional Review Board (IRB #636-2005).

[2] = test system: Ae. aegypti; assay: Complete Protection Time test on treated cloth (duration of protection); type: in vivo, Aedes aegypti; details: Dosage 0.75 mg/cm^2 on cloth; for Duration of protection against Ae. aegypti, M-3 Days Protection: subject M-3
Experimental: Bioassay for mosquito repellent activity: Repellency screening test for experimental chemicals were carried out to identify candidates that might be useful repellents. The repellent efficacy was compared to that of the standard repellent, DEET. Experimental compounds were assessed in one of two ways: (1) a range of concentration was evaluated to determine the minimum effective dosage (MED) which was the concentration threshold of where the repellent began to fail and allowed bites, or (2) a predetermined concentration of each repellent was applied to cloth and the activity was evaluated over several days (or in some cases months) (Katritzky, A. R., et al., Proc. Nat. Acad. Sci. (US), 105, 7359-7364 (2008); Katritzky, A. R., et al., Journal of Med. Entomol., 47: 924-938 (2010)). When conducting assays for repellency, a failure point was also predetermined for those measurements. Since experiments described herein used about 500 female mosquitoes per test, the failure point was set at 1% (equal to 5 bites) received during a test interval. From 3 to 5 volunteers participated in the screening of each set of chemicals. Complete Protection Time Test: Complete protection time (CPT) on treated cloth is a method of screening that is used to determine the repellent duration for experimental chemicals that have not been examined for safe use on humans. The standard repellent DEET was used as a positive control as a benchmark by which to compare the repellents. Experimental compounds were prepared in solution by combining 0.075 g of experimental chemical with 1 mL of acetone in a 7.1-mL screwtop glass vial. The same concentration level of DEET was also prepared in this way to serve as a control and a comparison for relative repellency. A 50 cm^2 (5 cm×10 cm) patch of muslin cloth was rolled lengthwise and placed into each of the glass vials and sealed with a screwtop so it soaked up the solution. Just prior to the experiment, the pieces of treated cloth were removed from the vials, affixed to card stock tabs (5 cm×3 cm) with staples, and hung with masking tape on a rack to dry and allowed the volatile acetone to evaporate. Similar to the MED tests, volunteers wore a latex glove over their hands, a nylon stocking over their arm, and then wrapped a plastic Velcro-sealed sleeve over their entire forearm with a 32 cm^2 (4 cm×8 cm) window cut-out to allow mosquitoes to bite through. Dried cloth patches were stretched across the window in the plastic sleeve and held in place with masking tape. Volunteers placed their sleeve-covered arms into a screened cage for a one minute period with approximately 500 female Ae. aegypti mosquitoes that had been preselected for host-seeking behavior using a draw box. A cloth patch that received a 1% bite through level, equal to 5 mosquitoes that bit out of 500 mosquitoes, was considered a failure at that concentration. If 0-4 bites were received, then the treated cloth was still considered to be repellent at that concentration. The duration was recorded as the number of days an experimental chemical received a passing result, with day 0 being the day the sample was first dried. […] As with the tests conducted to determine CPT, volunteers in the study provided informed consent (IRB protocol #636-2005). The protocol was approved by the University of Florida Human Use Institutional Review Board.

Row | SMILES | Ae. aegypti Minimum Effective Dosage, F1 [1] | Ae. aegypti Minimum Effective Dosage, M1 [1] | Ae. aegypti Minimum Effective Dosage, M2 [1] | Ae. aegypti Minimum Effective Dosage, Average [1] | Duration of protection, Proportion to DEET [2] | Duration of protection against Ae. aegypti, M-3 Days Protection [2] | mosquito repellent activity against Ae. aegypti (in words) ([1]; MED test on treated cloth)
1 | CC1(C)C=Cc2cc(CCO)ccc2O1 [Compound 9] | 0.375 mg/cm^2 | 0.375 mg/cm^2 | 0.375 mg/cm^2 | 0.375 mg/cm^2 | 0.50 | 1 days | 
2 | CC1(C)C=Cc2c(CO)ccc(Cl)c2O1 [Compound 11, (8-chloro-2,2-dimethyl-2H-chromen-5-yl)methanol] | 0.011 mg/cm^2 | 0.011 mg/cm^2 | 0.011 mg/cm^2 | 0.011 mg/cm^2 | 1.00 |  | act as mosquito repellents
3 | CC1(C)C=Cc2c(C(=O)O)ccc(Cl)c2O1 [Compound 13, 8-chloro-2,2-dimethyl-2H-chromene-5-carboxylic acid] | >1.500 mg/cm^2 | >1.500 mg/cm^2 | >1.500 mg/cm^2 |  | 0.50 | 1 days | 
